Assays:
H1650 cells = assay: CaspaseGlo 3/7 assay; type: cell-based; details: 24 hours
Procedure: (§1) Caspase Glo Assays. Assays were performed as directed by the manufacturer (Promega). Briefly, tumor cells were plated in black tissue-culture treated transparent-bottom 96 well plates at a density of 200,000 cells/mL (A549, H1650) or 400,000 cells/mL (H82) in a volume of 50 μL/well. Cells were treated with inhibitors at the indicated concentrations (final DMSO concentration of 0.5%) for 24 hrs at 37° C. under 5% CO2. Afterwards, 50 μL of the prepared CaspaseGlo reagent was added to each well. The reaction was allowed to proceed at 37° C. under 5% CO2 for 1 hr, at which point the cells were shaken in an orbital shaker at 500 rpm for 60 s and then luminescence was read for each well. Data were normalized to DMSO-treated wells and significance values determined with one-way ANOVA.

A549 cells = assay: CaspaseGlo 3/7 assay; type: cell-based; details: 24 hours
Procedure: as §1

H82 cells = assay: CaspaseGlo 3/7 assay; type: cell-based; details: 24 hours
Procedure: as §1

[1] = molecular target: T1, MP2K3 (Dual specificity mitogen-activated protein kinase kinase 3) (Homo sapiens, UniProt P46734); assay: SILAC LC-MS ATP acyl phosphate probe competition, native kinases in HEK293T; type: binding; details: site Lys2; ATP 1 mM; Ketanserin, Ritanserin 100 μM; RF001 1 mM
T1 construct: Native kinases; endogenous in cells; host or cells: HEK293T soluble proteome
T1 sequence (P46734 1-347): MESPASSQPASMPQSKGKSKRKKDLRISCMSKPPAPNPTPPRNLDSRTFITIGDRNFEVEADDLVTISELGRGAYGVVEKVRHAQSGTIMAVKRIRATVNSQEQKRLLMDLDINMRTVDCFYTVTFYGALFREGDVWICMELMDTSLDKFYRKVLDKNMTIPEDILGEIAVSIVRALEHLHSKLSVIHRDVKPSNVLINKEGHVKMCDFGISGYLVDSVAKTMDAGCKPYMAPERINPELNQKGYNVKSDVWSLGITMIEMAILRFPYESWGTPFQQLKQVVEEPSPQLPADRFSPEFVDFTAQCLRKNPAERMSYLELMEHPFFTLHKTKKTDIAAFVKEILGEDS
Method in brief: (§2)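 First, HEK293T proteomes at 2 mg/ml in kinase buffer were exposed to compound (heavy) or DMSO (light) for 30 min at 25° C. Next, samples were pooled 1:1 and trypsin/Lys-C digested. Finally, desthiobiotin peptides were enriched on avidin and measured by data-dependent LC-MS/MS.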

[2] = molecular target: T2, STK10 (Serine/threonine-protein kinase 10) (Homo sapiens, UniProt O94804); assay: as above; type: binding; details: site Lys2; ATP 1 mM; Ketanserin, Ritanserin 100 μM; RF001 1 mM
T2 construct: Native kinases; endogenous in cells; host or cells: HEK293T soluble proteome
Method in brief: as §2

T2 sequence (O94804 whole entry): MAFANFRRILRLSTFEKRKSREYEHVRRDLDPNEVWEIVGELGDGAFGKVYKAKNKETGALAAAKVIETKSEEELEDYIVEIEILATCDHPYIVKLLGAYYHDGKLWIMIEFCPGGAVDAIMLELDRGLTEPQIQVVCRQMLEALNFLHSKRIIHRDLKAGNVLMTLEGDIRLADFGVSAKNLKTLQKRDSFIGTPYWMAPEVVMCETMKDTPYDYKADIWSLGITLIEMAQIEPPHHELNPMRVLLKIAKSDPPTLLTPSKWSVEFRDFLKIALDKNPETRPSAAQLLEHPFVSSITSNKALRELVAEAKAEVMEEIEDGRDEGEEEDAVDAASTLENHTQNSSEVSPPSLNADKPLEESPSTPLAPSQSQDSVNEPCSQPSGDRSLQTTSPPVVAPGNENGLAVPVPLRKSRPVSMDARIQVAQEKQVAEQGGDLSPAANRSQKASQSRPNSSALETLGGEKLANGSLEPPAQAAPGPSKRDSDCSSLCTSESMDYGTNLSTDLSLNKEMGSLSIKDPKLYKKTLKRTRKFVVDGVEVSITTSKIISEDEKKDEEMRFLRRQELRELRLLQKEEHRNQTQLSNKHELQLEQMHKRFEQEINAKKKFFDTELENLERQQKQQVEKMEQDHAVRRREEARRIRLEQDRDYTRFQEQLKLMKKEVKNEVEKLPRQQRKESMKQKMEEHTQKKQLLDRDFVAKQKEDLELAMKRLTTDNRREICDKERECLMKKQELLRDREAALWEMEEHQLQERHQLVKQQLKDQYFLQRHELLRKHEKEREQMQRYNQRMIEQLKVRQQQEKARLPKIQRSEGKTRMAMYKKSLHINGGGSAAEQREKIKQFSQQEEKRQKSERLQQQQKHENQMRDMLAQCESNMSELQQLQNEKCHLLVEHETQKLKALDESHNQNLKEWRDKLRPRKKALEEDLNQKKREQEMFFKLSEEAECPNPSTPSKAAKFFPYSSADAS

SILAC ratio, MP2K3 probe-modified peptide [1]	SILAC ratio, STK10 probe-modified peptide [2]	Structure (SMILES)	caspase 3/7 activity (H1650 cells)	caspase 3/7 activity (A549 cells)	caspase 3/7 activity (H82 cells)
1.4	1.3	O=C(c1ccc(F)cc1)C1CCN(CCn2c(=O)[nH]c3ccccc3c2=O)CC1 [Ketanserin]	did not induce these effects	did not induce these effects	did not induce these effects
1.2	1.1	Fc1ccc(C(=C2CCNCC2)c2ccc(F)cc2)cc1 [RF001, 4-(Bis(4-fluorophenyl)methylene) piperidine]	–	–	–

Structure (SMILES)	SILAC ratio, MP2K3 probe-modified peptide [1]	SILAC ratio, STK10 probe-modified peptide [2]	caspase 3/7 activity (H1650 cells)	caspase 3/7 activity (A549 cells)	caspase 3/7 activity (H82 cells)
Cc1nc2sccn2c(=O)c1CCN1CCC(=C(c2ccc(F)cc2)c2ccc(F)cc2)CC1 [Ritanserin]	1.7	1.7	comparable activation of caspase 3/7 compared with staurosporine	lower degree of activation	comparable activation of caspase 3/7 compared with staurosporine

Reference: patent publication US12643867B2, “Compositions and uses thereof” (University of Virginia Patent Foundation, priority 2017, dated 2026)
